Laboratory results from ChEMBL document CHEMBL3044779, “The action of herbicides on fatty acid biosynthesis and elongation in barley and cucumber” (Pest Manag Sci, 2010).

Legend:
[1] = system: Hordeum vulgare; assay: Inhibition of fatty acid synthesis in Hordeum vulgare (barley) using [14C]malonate assessed as [14C]-labeled 26C fatty acid level at 1 uM after 3 hr by liquid scintillation counting (reference value: 7.6 +/- 1.8%); format: functional; design: scale not given: the % may be the effect or the level left
[2] = system: Hordeum vulgare; assay: Inhibition of fatty acid synthesis in Hordeum vulgare (barley) using [14C]malonate assessed as [14C]-labeled 20C fatty acid level at 1 uM after 3 hr by liquid scintillation counting (reference value: 6.1 +/- 0.5%); format: functional; design: scale not given: the % may be the effect or the level left
[3] = system: Cucumis sativus; assay: Inhibition of fatty acid synthesis in Cucumis sativus (cucumber) using [14C]acetate assessed as [14C]-labeled 16C fatty acid level at 100 uM after 3 hr by liquid scintillation counting (reference value: 31 +/- 2.8%); format: functional; design: scale not given: the % may be the effect or the level left
[4] = system: Hordeum vulgare; assay: Inhibition of fatty acid synthesis in Hordeum vulgare (barley) using [14C]malonate assessed as [14C]-labeled 16C fatty acid level at 1 uM after 3 hr by liquid scintillation counting (reference value: 8.7 +/- 0.2%); format: functional; design: scale not given: the % may be the effect or the level left
[5] = system: Hordeum vulgare; assay: Inhibition of fatty acid synthesis in Hordeum vulgare (barley) using [14C]acetate assessed as [14C]-labeled 16C fatty acid level at 1 uM after 3 hr by liquid scintillation counting (reference value: 23.3 +/- 0.2%); format: functional; design: scale not given: the % may be the effect or the level left
[6] = system: Cucumis sativus; assay: Inhibition of fatty acid synthesis in Cucumis sativus (cucumber) assessed as inhibition of [14C]acetate incoporation in total fatty acids at 100 uM measured as total disintegration per g of fresh weight after 3 hr by liquid scintillation counting (reference value: 9.2 +/- 2.1 dpm x 10^6 g'1 fresh wt); format: functional
[7] = system: Hordeum vulgare; assay: Inhibition of fatty acid synthesis in Hordeum vulgare (barley) assessed as inhibition of [14C]malonate incoporation in total fatty acids at 1 uM measured as total disintegration per g of fresh weight after 3 hr by liquid scintillation counting (reference value: 5.4 +/- 0.9 1 dpm x 10^6 g'1 fresh wt); format: functional
[8] = system: Hordeum vulgare; assay: Inhibition of fatty acid synthesis in Hordeum vulgare (barley) assessed as inhibition of [14C]acetate incoporation in total fatty acids at 1 uM measured as total disintegration per g of fresh weight after 3 hr by liquid scintillation counting (reference value: 4.6 +/- 1.2 dpm x 10^6 g'1 fresh wt); format: functional
[9] = target: T1, Acetyl-CoA carboxylase (Zea mays, UniProt Q3V4E6); assay: Inhibition of Zea mays (maize) chloroplastic ACCase using acetyl-coA as substrate assessed as inhibition of [14C]NaHCO3 incorporation into malonyl-coA incubated for 10 min prior to substrate addition measured for 20 min by liquid scintillation counting
[10] = target: T1, Acetyl-CoA carboxylase; assay: Inhibition of Zea mays (maize) cytosolic ACCase using acetyl-coA as substrate assessed as inhibition of [14C]NaHCO3 incorporation into malonyl-coA incubated for 10 min prior to substrate addition measured for 20 min by liquid scintillation counting
[11] = system: Hordeum vulgare; assay: Inhibition of fatty acid synthesis in Hordeum vulgare (barley) using [14C]malonate assessed as [14C]-labeled 24C fatty acid level at 1 uM after 3 hr by liquid scintillation counting (reference value: 20.7 +/- 1.8%); format: functional; design: scale not given: the % may be the effect or the level left
[12] = system: Hordeum vulgare; assay: Inhibition of fatty acid synthesis in Hordeum vulgare (barley) using [14C]acetate assessed as [14C]-labeled 24C fatty acid level at 1 uM after 3 hr by liquid scintillation counting (reference value: 11 +/- 0.8%); format: functional; design: scale not given: the % may be the effect or the level left
[13] = system: Cucumis sativus; assay: Inhibition of fatty acid synthesis in Cucumis sativus (cucumber) using [14C]acetate assessed as [14C]-labeled 22C fatty acid level at 100 uM after 3 hr by liquid scintillation counting (reference value: 10.2 +/-1.6%); format: functional; design: scale not given: the % may be the effect or the level left
[14] = system: Hordeum vulgare; assay: Inhibition of fatty acid synthesis in Hordeum vulgare (barley) using [14C]malonate assessed as [14C]-labeled 22C fatty acid level at 1 uM after 3 hr by liquid scintillation counting (reference value: 26.7 +/- 2.6%); format: functional; design: scale not given: the % may be the effect or the level left
[15] = system: Hordeum vulgare; assay: Inhibition of fatty acid synthesis in Hordeum vulgare (barley) using [14C]acetate assessed as [14C]-labeled 22C fatty acid level at 1 uM after 3 hr by liquid scintillation counting (reference value: 16.6 +/- 0.6%); format: functional; design: scale not given: the % may be the effect or the level left
[16] = system: Cucumis sativus; assay: Inhibition of fatty acid synthesis in Cucumis sativus (cucumber) using [14C]acetate assessed as [14C]-labeled 20C fatty acid level at 100 uM after 3 hr by liquid scintillation counting (reference value: 14.7 +/- 0.6%); format: functional; design: scale not given: the % may be the effect or the level left
[17] = system: Hordeum vulgare; assay: Inhibition of fatty acid synthesis in Hordeum vulgare (barley) using [14C]acetate assessed as [14C]-labeled 20C fatty acid level at 1 uM after 3 hr by liquid scintillation counting (reference value: 6.6 +/- 2.3%); format: functional; design: scale not given: the % may be the effect or the level left
[18] = system: Cucumis sativus; assay: Inhibition of fatty acid synthesis in Cucumis sativus (cucumber) using [14C]acetate assessed as [14C]-labeled 18C fatty acid level at 100 uM after 3 hr by liquid scintillation counting (reference value: 43.9 +/- 3.6%); format: functional; design: scale not given: the % may be the effect or the level left
[19] = system: Hordeum vulgare; assay: Inhibition of fatty acid synthesis in Hordeum vulgare (barley) using [14C]malonate assessed as [14C]-labeled 18C fatty acid level at 1 uM after 3 hr by liquid scintillation counting (reference value: 30.3 +/- 2.9%); format: functional; design: scale not given: the % may be the effect or the level left
[20] = system: Hordeum vulgare; assay: Inhibition of fatty acid synthesis in Hordeum vulgare (barley) using [14C]acetate assessed as [14C]-labeled 18C fatty acid level at 1 uM after 3 hr by liquid scintillation counting (reference value: 42.6 +/- 2.4%); format: functional; design: scale not given: the % may be the effect or the level left

T1 sequence (Q3V4E6 whole entry): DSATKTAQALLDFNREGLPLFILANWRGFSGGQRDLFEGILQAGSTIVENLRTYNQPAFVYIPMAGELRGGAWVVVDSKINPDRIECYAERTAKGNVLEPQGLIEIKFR

## CCc1cc(C)cc(CC)c1C1C(=O)N2CCOCCN2C1=O [PINOXADEN DIONE]
[1]
  Activity: 13.8%
[2]
  Activity: 7.7%
[3]
  Activity: 30.4%
[4]
  Activity: 0.5%
[5]
  Activity: 3.1%
[6]
  Activity: 9.2 ×10⁶ dpm
[7]
  Activity: 5.1 ×10⁶ dpm
[8]
  Activity: 2.8 ×10⁶ dpm
[9]
  IC50: 0.11 µM
[10]
  IC50: 16.9 µM
[11]
  Activity: 27.7%
[12]
  Activity: 32.6%
[13]
  Activity: 11.9%
[14]
  Activity: 41.9%
[15]
  Activity: 32.7%
[16]
  Activity: 10.1%
[17]
  Activity: 3.6%
[18]
  Activity: 47.4%
[19]
  Activity: 8.3%
[20]
  Activity: 18.1%
